{
  "source": "patent US20240398829A1",
  "about": "“A COBALT-[…] AMINO ACID COMPLEX AND ITS USE FOR TREATING CANCER” (AMELIO BIOTECH CO., LTD., priority 2021, published 2024)",
  "key": {"[1]": {"test_system": "zebrafish liver", "assay": "Hepatoxicity assay in Tg(fabp10a:EGFP-mCherry) embryos", "conditions": "10 μM, embryos treated from 3 dpf", "method": "About 3 dpf, 50 embryos were distributed into 10 ml chemical solution/well (chemical/E3 solution) in 6-well plates until 5 dpf and new chemical solution was replaced every day. At 5 dpf, embryos were anesthetized with tricaine (0.016%) and the images of 8 to 10 embryos randomly per well were taken by ZEISS AxioCam MRc. There are three different images which one with auto exposure-time for the clearest view, one with fixed exposure-time to capture RFP (red fluorescent protein) intensity below saturation for intensity measurement and comparison, and the last one with sufficient exposure-time to show the whole liver region for size measurement. Image J software was then used to quantify intensity of RFP and liver size. Average RFP intensity in the liver was calculated and compared within the same group of lateral view fry under the same magnification and fixed exposure-time.\nImages were analyzed by Image J software."}, "[2]": {"test_system": "ccne1, cdk1, cdk2, myca, mycb, ccnd1", "assay": "qPCR of cell proliferation markers and beta-catenin downstream target genes in tert transgenic zebrafish", "assay_type": "in vivo, zebrafish (Danio rerio)", "conditions": "0.5×(50 μM), 15 dpf, vs untreated", "protocol": "(§1) 50 zebrafish larva were placed in a fish tank with 800 ml of system water, the water were refreshed every day at 4 pm. From day 5 to day 15, AB(WT) and tert transgenic zebrafish were fed with normal larva food, plus 20 ml of Paramecium, and there must be 2 hours between meals, four meals a day. The last meal must be fed after 1 hour before the water changed. […] The fish were fasting for one days before collecting the samples for RNA extraction and hematoxylin-eosin (H&E) staining.\nTotal RNA was isolated by NucleoSpin® RNA kit ([…]-NAGEL, USA). […]\nThe resulting first-strand cDNA was used as a template for […] PCR in triplicate by using the SYBR Green Q-PCR Master Mix Kit (Applied Biosystems) using an ABI PRISM 7900 System. After normalization to internal control actin, the expression ratio between the experimental and control groups was calculated using the comparative Ct method. The relative expression ratio (fold change) was calculated based on ΔΔCt, ΔΔCt=(Cttarget−Ctactin)treatment−(Cttarget−Ctactin)control, and fold change=2^−ΔΔ^Ct. […] At least three independent samples were used for Q-PCR, and the standard error was calculated and incorporated into the presented data as […]±standard error. Differences among variables were assessed by a two-tailed Student's t test. […]"}, "[3]": {"test_system": "U-87 MG cells", "assay": "Cell proliferation assay I (PrestoBlue), U-87 MG", "assay_type": "cell-based, human", "conditions": "72 h; for U-87 MG cell survival (%): vs control without drug", "protocol": "(§2) U-87 MG cells (a human primary glioblastoma cell line) were cultured in MEM medium (Gibco, New York, NY, USA). A375 cells (a human melanoma cell line) and Huh7 cells (a human hepatocellular carcinoma (HCC) cell line) were cultured in DMEM medium (HyClone, Logan, UT, USA). The culture media were supplemented with 10% heat-inactivated fetal bovine serum (FBS), 1% penicillin/streptomycin and 1% […] (HyClone, Logan, UT, USA). Cells were seeded in 96-well plates at a density of 2000 cells/well. Then, cells were transferred to 37° C. incubator. […] At the end of incubation, the PrestoBlue™ Cell Viability Reagent (Invitrogen, Eugene, OR, USA) was distributed to cells. The plates were incubated for 90 min at 37° C. in a humidified, 5% CO2 atmosphere and the fluorescence was then recorded at Ex/Em: 560 nm/590 nm. Triplicate experiments were performed."}, "[4]": {"test_system": "A375 cells", "assay": "Cell proliferation assay I (PrestoBlue), A375", "assay_type": "cell-based, human", "conditions": "72 h; for A375 cell survival (%): vs control without drug", "protocol": "as §2"}, "[5]": {"test_system": "A375", "assay": "Cell proliferation assay II (MTS), A375", "assay_type": "cell-based, human", "conditions": "A375, 72 h, mean ± SD", "protocol": "(§3) Human lung cancer cell line NCI-H226 was purchased from the American type culture collection (CRL-5826). NCI-H226 was grown in RPMI supplemented with 10% FBS in a humidified atmosphere containing 5% CO2 at 37° C. Human melanoma cell line A375, human pharynx squamous cell carcinoma FaDu, human cervical epithelioid carcinoma HeLa and human chronic myelogenous leukemia K-562 were purchased from Bioresource Collection and Research Center (BCRC), Hsinchu 300, Taiwan. A375 cells were grown in DMEM supplemented with 10% FBS in a humidified atmosphere 5% CO2 at 37° C. FaDu cells were grown in DMEM supplemented with 10% FBS in a humidified atmosphere 5% CO2 at 37° C. HeLa cell were grown in DMEM supplemented with 10% FBS in a humidified atmosphere 5% CO2 at 37° C. […]\n(§4) MTS/PMS solution was freshly prepared and added (20 μl per well) into each well of 96-well cultured plate. The assay plate was incubated for 3 hours at 37° C., 5% CO2, under humidified atmosphere, and measured the absorbance at 490 nm using Multiskan™ GO Microplate Spectrophotometer (Thermo Fisher Scientific).\n(§5) Corrected absorbance values were obtained by subtracting the average 490 nm absorbance of the negative control wells (medium only, no cell, as background control) from all other absorbance values. Percentage inhibition of cell growth for compound treatment was calculated using this formula: […]"}, "[6]": {"test_system": "HeLa", "assay": "Cell proliferation assay II (MTS), HeLa", "assay_type": "cell-based, human", "conditions": "72 h, mean ± SD", "protocol": "as §3, §4, §5"}, "[7]": {"test_system": "Huh7 cells", "assay": "Cell proliferation assay I (PrestoBlue), Huh7", "assay_type": "cell-based, human", "conditions": "72 h; for Huh7 cell survival (%): vs control without drug", "protocol": "as §2"}, "[8]": {"test_system": "K-562", "assay": "Cell proliferation assay II (MTS), K-562", "assay_type": "cell-based, human", "conditions": "K-562, 72 h, mean ± SD", "protocol": "as §3, §4, §5"}, "[9]": {"test_system": "U87", "assay": "Cell proliferation assay II (MTS), U87", "assay_type": "cell-based, human", "conditions": "U87, 72 h, mean ± SD", "protocol": "as §3, §4, §5"}, "[10]": {"test_system": "NCI-H226", "assay": "Cell proliferation assay II (MTS), NCI-H226", "assay_type": "cell-based, human", "conditions": "NCI-H226, 72 h, mean ± SD", "protocol": "as §3, §4, §5"}, "[11]": {"test_system": "FaDu", "assay": "Cell proliferation assay II (MTS), FaDu", "assay_type": "cell-based, human", "conditions": "72 h, mean ± SD", "protocol": "as §3, §4, §5"}, "[12]": {"test_system": "Hep3B hepatoma cells", "assay": "Xenotransplantation assay of cell proliferation in zebrafish embryos", "assay_type": "in vivo, human", "conditions": "two days, zebrafish embryo xenotransplant"}, "[13]": {"test_system": "tert transgenic zebrafish", "assay": "H&E staining of liver cells of tert transgenic zebrafish", "assay_type": "in vivo, zebrafish (Danio rerio)", "conditions": "15 dpf", "protocol": "as §1\nAfter 1 month of RO injection, the fish was sacrificed, and the liver was taken out and divided into two parts for RNA isolation and paraffin section. The liver tissues were frozen in liquid nitrogen immediately after sectioning and stored at −80° C. for later RNA isolation. For histochemistry analysis, liver tissues were fixed in a 10% formalin solution (Sigma-Aldrich Inc., St. Louis, MO, USA). The fixed tissue was embedded in paraffin, and sectioned at 5-μm thickness mounted on poly-L-lysine coated slides, and the sections were stained with hematoxylin and eosin (H&E stain), which this part was performed by the Pathology core facility.\nH&E staining is mainly to observe the states of mitotic figures, […] cells, and macronucleated cells that represent hepatocyte undergoes carcinogenesis."}},
  "note": "“And” between values parts separate entries of the source, which are not always exact repeats. Identical values can stand only once.",
  "data": [
    {"compound": "CNC(=O)c1cc(Oc2ccc(NC(=O)Nc3ccc(Cl)c(C(F)(F)F)c3)cc2)ccn1", "note": "[Sorafenib]", "values": [
      {"measurement": "liver size vs DMSO treated control", "setting": "[1]", "result": "significantly reduce liver size"}
    ]},
    {"compound": "cobalt-containing glutamic acid (COGA) complex", "values": [
      {"measurement": "expression of cell proliferation markers (ccne1, cdk1, cdk2) and beta-catenin downstream target genes (myca, mycb, ccnd1)", "setting": "[2]", "result": "significantly reduced"},
      {"measurement": "U-87 MG cell survival (%)", "setting": "[3]; 5 nM", "result": "100% and 105% and 103%"},
      {"measurement": "U-87 MG cell survival (%)", "setting": "[3]; 14 nM", "result": "95% and 97%"},
      {"measurement": "U-87 MG cell survival (%)", "setting": "[3]; 41 nM", "result": "89% and 93%"},
      {"measurement": "U-87 MG cell survival (%)", "setting": "[3]; 123 nM", "result": 89, "unit": "%"},
      {"measurement": "U-87 MG cell survival (%)", "setting": "[3]; 370 nM", "result": "87% and 91% and 85%"},
      {"measurement": "U-87 MG cell survival (%)", "setting": "[3]; 1111 nM", "result": "87% and 90% and 84%"},
      {"measurement": "U-87 MG cell survival (%)", "setting": "[3]; 3333 nM", "result": "87% and 89% and 84%"},
      {"measurement": "U-87 MG cell survival (%)", "setting": "[3]; 10000 nM", "result": "89% and 90% and 88%"},
      {"measurement": "IC50", "setting": "[3]; U-87 MG cells", "result": "> 10", "unit": "µM"},
      {"measurement": "A375 cell survival (%)", "setting": "[4]; 5 nM", "result": "110% and 104% and 105%"},
      {"measurement": "A375 cell survival (%)", "setting": "[4]; 14 nM", "result": "89% and 87% and 85%"},
      {"measurement": "A375 cell survival (%)", "setting": "[4]; 41 nM", "result": "74% and 71% and 68%"},
      {"measurement": "A375 cell survival (%)", "setting": "[4]; 123 nM", "result": "72% and 69% and 67%"},
      {"measurement": "A375 cell survival (%)", "setting": "[4]; 370 nM", "result": "69% and 68% and 62%"},
      {"measurement": "A375 cell survival (%)", "setting": "[4]; 1111 nM", "result": "70% and 71% and 67%"},
      {"measurement": "A375 cell survival (%)", "setting": "[4]; 3333 nM", "result": "77% and 76% and 72%"},
      {"measurement": "A375 cell survival (%)", "setting": "[4]; 10000 nM", "result": "89% and 88% and 84%"},
      {"measurement": "IC50", "setting": "[4]; A375 cells", "result": "0.0687 ± 0.0158", "unit": "µM"},
      {"measurement": "IC50", "setting": "[5]", "result": "102 ± 2", "unit": "µM"},
      {"measurement": "IC50", "setting": "[6]", "result": "73.7 ± 19", "unit": "µM"},
      {"measurement": "Huh7 cell survival (%)", "setting": "[7]; 5 nM", "result": "102% and 107% and 100%"},
      {"measurement": "Huh7 cell survival (%)", "setting": "[7]; 14 nM", "result": "88% and 92% and 84%"},
      {"measurement": "Huh7 cell survival (%)", "setting": "[7]; 41 nM", "result": "78% and 80% and 72%"},
      {"measurement": "Huh7 cell survival (%)", "setting": "[7]; 123 nM", "result": "73% and 77% and 71%"},
      {"measurement": "Huh7 cell survival (%)", "setting": "[7]; 370 nM", "result": "74% and 75% and 69%"},
      {"measurement": "Huh7 cell survival (%)", "setting": "[7]; 1111 nM", "result": "82% and 79% and 73%"},
      {"measurement": "Huh7 cell survival (%)", "setting": "[7]; 3333 nM", "result": "80% and 82% and 75%"},
      {"measurement": "Huh7 cell survival (%)", "setting": "[7]; 10000 nM", "result": "89% and 92% and 82%"},
      {"measurement": "IC50", "setting": "[7]; Huh7 cells", "result": "0.287 ± 0.0618", "unit": "µM"},
      {"measurement": "IC50", "setting": "[8]", "result": "54.5 ± 4.4", "unit": "µM"},
      {"measurement": "IC50", "setting": "[9]", "result": 42, "unit": "µM"},
      {"measurement": "IC50", "setting": "[10]", "result": "45 µM and 44.5 µM"},
      {"measurement": "IC50", "setting": "[11]", "result": "74.6 ± 63", "unit": "µM"},
      {"measurement": "hepatoma cell proliferation compared to the DMSO treatment", "setting": "[12]; 0.5×(50 μM)", "result": "significantly reduced"},
      {"measurement": "hepatoma cell proliferation compared to the DMSO treatment", "setting": "[12]; 1×(100 μM)", "result": "significantly reduced"},
      {"measurement": "number of mitotic figures, trinucleated cells, and macronucleated cells", "setting": "[13]", "result": "significantly reduced"}
    ]}
  ]
}
